Measurements taken from PubChem BioAssay AID330 (DTP/NCI, 2004).
Values joined by “and” are separate entries in the source; they are usually repeats but may differ in a detail not shown here. Equal entries are not always repeated. Inconclusive results and toxic doses are left out. The calls were made as follows: active = survival T/C of 150% or more; inactive = T/C below 125% in these data. Peptide text beside a SMILES is read from it. * marks the point of attachment. Cbz = O=C(OCc1ccccc1)*

System: P388 leukemia ip, CD2F1 mice, survival T/C
Experiment: NCI In Vivo Anticancer Drug Screen. Data for tumor model P388 Leukemia (intraperitoneal) in CD2F1 (CDF1) mice
Conditions: endpoint: median survival time, higher = longer survival
Procedure, shortened: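 Mice carrying the transplanted tumor received test compound or vehicle. Survival was recorded in each group, and the value is the treated-group measurement divided by that of the vehicle-treated control group.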

[1] = dose: 50.0 mg/kg/injection, schedule: Q01DX005 (ip), vehicle: saline
[2] = dose: 100.0 mg/kg/injection, schedule: Q01DX005 (ip), vehicle: saline
[3] = dose: 200.0 mg/kg/injection, schedule: Q01DX005 (ip), vehicle: saline
[4] = dose: 50.0 mg/kg/injection, schedule: Q01DX005 (ip), vehicle: saline with Tween-80
[5] = dose: 100.0 mg/kg/injection, schedule: Q01DX005 (ip), vehicle: saline with Tween-80
[6] = dose: 50.0 mg/kg/injection, schedule: Q01DX009 (ip), vehicle: saline with Tween-80
[7] = dose: 100.0 mg/kg/injection, schedule: Q01DX009 (ip), vehicle: saline with Tween-80
[8] = dose: 100.0 mg/kg/injection, schedule: Q04DX003 (ip), vehicle: saline with Tween-80
[9] = dose: 200.0 mg/kg/injection, schedule: Q01DX009 (ip), vehicle: saline with Tween-80
[10] = dose: 200.0 mg/kg/injection, schedule: Q04DX003 (ip), vehicle: saline with Tween-80
[11] = dose: 25.0 mg/kg/injection, schedule: Q01DX005 (ip), vehicle: saline with Tween-80
[12] = dose: 100.0 mg/kg/injection, schedule: Q04DX002 (ip), vehicle: saline with Tween-80

Measured: T/C

O=C(O)c1ccc(C(Cl)(Cl)Cl)cc1
inactive: dose: 100.0 mg/kg/injection, schedule: Q04DX003 (ip), vehicle: saline sonified 113 % of control | dose: 200.0 mg/kg/injection, schedule: Q04DX003 (ip), vehicle: saline sonified 113 % of control | dose: 400.0 mg/kg/injection, schedule: Q04DX003 (ip), vehicle: saline sonified 113 % of control

Clc1ccc(SSN2CCOCC2)cc1
inactive: dose: 3.12 mg/kg/injection, schedule: Q01DX009 (ip), vehicle: saline 100 % of control | dose: 6.25 mg/kg/injection, schedule: Q01DX009 (ip), vehicle: saline 109 % of control | dose: 12.5 mg/kg/injection, schedule: Q01DX009 (ip), vehicle: saline 102 % of control

COc1cc(NC(C)CN(CC(C)C)CC(C)C)c2ncccc2c1Cl (stereo not drawn)
inactive: [1] 100 % of control | [2] 103 % of control | [3] 116 % of control

O=C(CN(Cc1ccccc1)Cc1ccccc1)C(O)C1OC(c2ccccc2)OCC1O (stereo not drawn)
inactive: [4] 91 % of control | [5] 88 % of control | dose: 200.0 mg/kg/injection, schedule: Q01DX005 (ip), vehicle: saline with Tween-80 89 % of control

CCOc1c(N=Nc2ccccc2OC)c(C)nn1C(N)=S
inactive: dose: 3.75 mg/kg/injection, schedule: Q01DX005 (ip), vehicle: Klucel + Tween-80 100 % of control | dose: 7.5 mg/kg/injection, schedule: Q01DX005 (ip), vehicle: Klucel + Tween-80 94 % of control | dose: 15.0 mg/kg/injection, schedule: Q01DX005 (ip), vehicle: Klucel + Tween-80 99 % of control and 105 % of control

Nc1nc(N)c2[nH]cnc2n1
inactive: dose: 6.25 mg/kg/injection, schedule: Q01DX009 (ip), vehicle: other 111 % of control | dose: 12.5 mg/kg/injection, schedule: Q01DX009 (ip), vehicle: other 100 % of control | dose: 25.0 mg/kg/injection, schedule: Q01DX009 (ip), vehicle: other 104 % of control | dose: 50.0 mg/kg/injection, schedule: Q01DX009 (ip), vehicle: other 95 % of control | [6] 90 % of control | dose: 50.0 mg/kg/injection, schedule: Q04DX003 (ip), vehicle: saline with Tween-80 108 % of control | dose: 100.0 mg/kg/injection, schedule: Q01DX009 (ip), vehicle: other 106 % of control | [7] 90 % of control | [8] 108 % of control | [9] 100 % of control | [10] 108 % of control | dose: 400.0 mg/kg/injection, schedule: Q01DX009 (ip), vehicle: saline with Tween-80 90 % of control | dose: 400.0 mg/kg/injection, schedule: Q04DX003 (ip), vehicle: saline with Tween-80 91 % of control

O=CN(CCO)CCO
inactive: [1] 107 % of control | [2] 94 % of control | [3] 114 % of control

CCOc1c(Cc2ccccc2)c(=O)n2c3ccccc3n(CC)c2c1C#N
inactive: dose: 7.5 mg/kg/injection, schedule: Q01DX005 (ip), vehicle: saline with Tween-80 100 % of control | dose: 15.0 mg/kg/injection, schedule: Q01DX005 (ip), vehicle: saline with Tween-80 102 % of control | dose: 30.0 mg/kg/injection, schedule: Q01DX005 (ip), vehicle: saline with Tween-80 101 % of control

COc1cc2c(OC)c(c1)CCC1=CC(=O)C(=CC1=O)CC2
inactive: dose: 100.0 mg/kg/injection, schedule: Q01DX001 (ip), vehicle: Klucel (hydroxypropylcellulose) (HPC) 99 % of control | dose: 200.0 mg/kg/injection, schedule: Q01DX001 (ip), vehicle: Klucel (hydroxypropylcellulose) (HPC) 96 % of control

Clc1ccc(-c2csc3cccc[n+]23)cc1
inactive: dose: 12.5 mg/kg/injection, schedule: Q01DX009 (ip), vehicle: Klucel (hydroxypropylcellulose) (HPC) 103 % of control | dose: 25.0 mg/kg/injection, schedule: Q01DX009 (ip), vehicle: Klucel (hydroxypropylcellulose) (HPC) 100 % of control | dose: 50.0 mg/kg/injection, schedule: Q01DX009 (ip), vehicle: Klucel (hydroxypropylcellulose) (HPC) 103 % of control

Clc1nn2ccnc2c2cccnc12
inactive: dose: 12.5 mg/kg/injection, schedule: Q04DX003 (ip), vehicle: Klucel (hydroxypropylcellulose) (HPC) 100 % of control | dose: 25.0 mg/kg/injection, schedule: Q04DX003 (ip), vehicle: Klucel (hydroxypropylcellulose) (HPC) 103 % of control

CCOC(=O)C(NC(C)=O)(C(=O)OCC)C1CCCC1=O (stereo not drawn)
inactive: dose: 60.0 mg/kg/injection, schedule: Q01DX005 (ip), vehicle: saline 94 % of control | dose: 120.0 mg/kg/injection, schedule: Q01DX005 (ip), vehicle: saline 96 % of control | dose: 240.0 mg/kg/injection, schedule: Q01DX005 (ip), vehicle: saline 100 % of control

COc1cccc(C(=O)CC(c2ccccc2)C(C)(C)[N+](=O)[O-])c1 (stereo not drawn)
inactive: [11] 105 % of control | [4] 99 % of control | [5] 99 % of control

COC(=O)C(NC(=O)C1CCCN1C(=O)OCc1ccccc1)C(C)C (stereo not drawn) (Cbz-Pro-Val-OMe; configuration not given here)
inactive: [6] 98 % of control | [7] 104 % of control | [9] 107 % of control

COC(=O)Nc1nc2ccc(C(O)(c3ccccc3)c3cccs3)cc2[nH]1 (stereo not drawn)
inactive: [11] 95 % of control | [4] 95 % of control | [5] 99 % of control

O=C(NC(Cc1ccc(I)cc1)C(=O)O)c1ccc(Cl)cc1 (stereo not drawn)
inactive: dose: 50.0 mg/kg/injection, schedule: Q01DX005 (ip), vehicle: Klucel (hydroxypropylcellulose) (HPC) 95 % of control | dose: 100.0 mg/kg/injection, schedule: Q01DX005 (ip), vehicle: Klucel (hydroxypropylcellulose) (HPC) 100 % of control | dose: 200.0 mg/kg/injection, schedule: Q01DX005 (ip), vehicle: Klucel (hydroxypropylcellulose) (HPC) 108 % of control

NC(=O)Cc1[nH]ccc1C(=O)O
inactive: dose: 100.0 mg/kg/injection, schedule: Q01DX001 (ip), vehicle: saline with Tween-80 103 % of control | dose: 200.0 mg/kg/injection, schedule: Q01DX001 (ip), vehicle: saline with Tween-80 97 % of control | dose: 400.0 mg/kg/injection, schedule: Q01DX001 (ip), vehicle: saline with Tween-80 97 % of control

COc1ccc(OC)c2c1C(=O)C=CC2=O
inactive: dose: 1.56 mg/kg/injection, schedule: Q01DX001 (ip), vehicle: saline 108 % of control | dose: 3.13 mg/kg/injection, schedule: Q01DX001 (ip), vehicle: saline 110 % of control | dose: 6.25 mg/kg/injection, schedule: Q01DX001 (ip), vehicle: saline 108 % of control

CCP(C)(=O)c1ccccc1 (stereo not drawn)
inactive: [12] 96 % of control | dose: 200.0 mg/kg/injection, schedule: Q04DX002 (ip), vehicle: saline with Tween-80 97 % of control | dose: 400.0 mg/kg/injection, schedule: Q04DX002 (ip), vehicle: saline with Tween-80 100 % of control

CC[n+]1cccc2ccccc21
inactive: [8] 101 % of control | [10] 94 % of control

CC1(C)C=Cc2c(ccc3c(=O)c(-c4ccc5c(c4)OCO5)coc23)O1
inactive: dose: 25.0 mg/kg/injection, schedule: Q04DX002 (ip), vehicle: saline with Tween-80 107 % of control | dose: 50.0 mg/kg/injection, schedule: Q04DX002 (ip), vehicle: saline with Tween-80 101 % of control | [12] 99 % of control and 108 % of control

Cc1c2ccncc2c(CO)c2c3ccccc3n(C)c12
inactive: dose: 5.0 mg/kg/injection, schedule: Q01DX005 (ip), vehicle: saline 109 % of control | dose: 10.0 mg/kg/injection, schedule: Q01DX005 (ip), vehicle: saline 97 % of control | dose: 20.0 mg/kg/injection, schedule: Q01DX005 (ip), vehicle: saline 97 % of control
